From patent US10004750B2, “Salt of cephalosporin derivative, its crystalline solid and a method of manufacturing thereof” (Shionogi & Co., Ltd., priority 2014, dated 2018)
One block for each molecule: values may come before it.

Tests used:
Assay type in all cases: physicochemical
[1] = Solubility of the compound (IA) in water
[2] = pKa measurement by capillary electrophoresis method (CE method); conditions: 25° C., pH 2.5 to 11.5 buffer
From the text: (Measuring Method by Capillary Electrophoresis Method, CE Method)
It is a method by using Capillary Zone Electrophoresis technique and a method of separation by using free electrophoresis of each sample component in a buffer including electrolyte.
After injecting a compound solution to fused silica capillary filling a buffer adjusting the pH 2.5 to 11.5, high voltage (Inlet side +, Outlet side −) is on capillary, and then a compound moves at a speed reflecting an ionized state at the pH of the buffer (a compound having (+) charge moves quickly, and a compound having (−) charged moves slowly). pKas was calculated by plotting the difference between the migration time of the compound and that of a neutral molecule (DMSO) against pH, and fitting. […]

[3] = Solubility of sodium salt in various aqueous media
Procedure: To anisole (1.54 L) cooling in dry ice-ethanol bath was added aluminium chloride (495.4 g, 3.71 mol) followed by dichloromethane. 610 g of the crude product containing the compound 8 obtained by Step 1 was dissolved in a mixed solution of dichloromethane (0.51 L) and anisole (1.03 L) and spent 1 hour adding dropwise to the above aluminium chloride solution re-cooling to −40° C. The container used for the dropwise was washed with a mixed solution of dichloromethane (0.36 L) and anisole (0.51 L) and the wash fluid was added to the reaction solution. The reaction solution was stirred at −20° C. for 2 hours, and added to a mixed solution of ethanol (7.1 L), 1 mol/L hydrochloric acid (7.1 L) while stirring under cooling in ice-bath. The mixed solution was stirred for 30 minutes under ice-cooling, dichloromethane (5.14 L) and saturated brine (257 mL) was added, the separated aqueous layer was washed with dichloromethane (5.14 L). The organic layer was extracted with a mixture of water (2.57 L) and saturated brine (100 mL), and the separated aqueous layer was combined with the previous aqueous layer. The aqueous layer was stirred under cooling in ice-bath, and 2 mol/L sodium hydroxide aqueous solution was added to adjust pH to 1.5 and the solution was left to stand. The aqueous layer was concentrated and purified by HP20SS column (eluent: 13% acetonitrile water). Sodium bicarbonate (8.75 g) was added to the collected fractions containing the target product and the resulting solution was concentrated under reduced pressure until 500 mL. The solution was diluted by adding water (1.6 L) and filtered with cotton plug, and then the filtrate was lyophilized to yield the compound 9 (77.8 g). • Elemental analysis: (calculated as C30H33ClN7O10S2Na 4.5H2O) • Calculated: C; 42.13, H; 4.95, N; 11.46, S; 7.50, Cl; 4.14, Na; 2.69(%) • Measured: C; 42.22, H; 4.88, N; 11.24, S; 7.01, Cl; 4.04, Na; 2.74(%) The solubility of the obtained compound 9 in various aqueous medium (water for injection, saline, dextrose solution) was all 100 mg/mL or more, and they are very high solubility.

[4] = Solid stability test of crystalline solid; conditions: −20±5° C. or 5±5° C., light shielding, double polyethylene bag in metal can, 0, 3, 6, 9, 12 months
Procedure: The type I crystal D about 1 g was put in a polyethylene bag and tightened with a convex. This bag was further put in a polyethylene bag and tightened with a convex in the same way. The above sample of the same storage conditions was put together in a metal can as a stability evaluation sample. The storage conditions, storage period and test items are as follows.
• Temperature: −20±5° C. or 5±5° C. • Light shielding • Package form: double polyethylene bag, convex, metal can • Storage period: 0, 3, 6, 9, 12 months (Measurement)
Using the type I crystal D stored at the above storage conditions and storage period, after viewing the change in appearance, the contents of the compound (IA) and the related substances were measured by the following method.
Step 1: Preparation of a Sample Solution
About 40 mg of the sample was weighed precisely, and dissolved in a sample dilution solvent to be exactly 25 mL. • 5 mmol/L phosphate buffer/liquid chromatography acetonitrile mixture (9:1) was used as the above sample dilution solvent was used. Herein, water: 0.05 mol/L sodium dihydrogen phosphate test solution: 0.05 mol/L disodium hydrogen phosphate reagent mixture=18:1:1 (pH is about 7.1) was used as a phosphate buffer. Step 2: HPLC Measurement of Related Substances
The above sample solution was measured by liquid chromatography under the following test condition to measure peak areas of the compound (IA) and its related substances by the automatic integration method.
• Column: YMC-UltraHT Pro C18, φ2.0×100 mm, 2 μm, YMC • Column temperature: 35° C. • UV detection wavelength: 261 nm • Mobile phase: [A] […]
• Flow rate: 0.5 mL per minute (a retention time of the compound (IA) about 5 minutes) The amount of related substances in the sample was determined by using the following formula. […]
The above standard solution and sample solution was measured by liquid chromatography under the following test condition to determine a peak area of the compound (IA) by an automatic integration method. […]
The content of related substances in the sample was determined using the following formula. […]

[5] = Dynamic vapor sorption measurement; conditions: 25° C.
Procedure: Dynamic vapor sorption (DVS) is a gravimetric technique that measures how quickly and how much of water is absorbed and desorbed by a sample in several relative humidity (RH). A degree of water absorption is calculated by weight change in controlled humidity increased from 0% RH to 95% RH stepped 5% or 10%. Similarly, a degree of water desorption is calculated in humidity decreased from 95% RH to 0% RH. An absorption-desorption isotherm is obtained by plotting a value of weight change in each humidity. […] When the anhydrate crystal transforms to hydrate crystal by humidity, the results of measurement indicate transformation humidity and amount of crystal water. The dynamic vapor sorption measurement of the crystalline solid obtained in each example was carried out. The sample of about 18.0 mg was measured and transferred to a sample pan, and it was measured. The measurement condition is shown below. • Device: DVS Advantage made by Surface Measurement Systems LTD. • Measurement point: each 5% from RH95% to RH0%. • Temperature: 25° C. (Method of Measuring the Karl Fischer Method) The results of a dynamic vapor sorption measurement of the type I crystal D obtained in Example 6-1 were shown in FIG. 7 and Table 7. Dynamic vapor sorption measurement can be occurred errors within the range of ±0.5%. An increased amount of water (%) represents an increased amount of the type I crystal at 0% RH.

solubility in water [1]: very low | pKa1 [2]: 4.2 | pKa2 [2]: 7.2
Compound: CC(C)(O/N=C(\C(=O)N[C@@H]1C(=O)N2C(C(=O)[O-])=C(C[N+]3(CCNC(=O)c4ccc(O)c(O)c4Cl)CCCC3)CS[C@H]12)c1csc(N)n1)C(=O)O (stereo in doubt) [compound (IA)]

solubility ([3]; dextrose solution, saline or isotonic): ≥ 100 mg/mL | solubility ([3]; saline, saline or isotonic): ≥ 100 mg/mL | solubility ([3]; water for injection, water): ≥ 100 mg/mL
Compound: CC(C)(O/N=C(\C(=O)N[C@@H]1C(=O)N2C(C(=O)[O-])=C(C[N+]3(CCNC(=O)c4ccc(O)c(O)c4Cl)CCCC3)CS[C@H]12)c1csc(N)n1)C(=O)O [compound 9]

change in appearance on storage [4]: no change in the appearance | increase of content of related substances on storage (HPLC) [4]: not observed | solid storage stability (overall) [4]: very stable | Increased amount of water (%) ([5]; Relative humidity 0% RH, relative to type I crystal at 0% RH): 0.00% | Increased amount of water (%) ([5]; Relative humidity 5% RH, relative to 0% RH): 3.33% | Increased amount of water (%) ([5]; Relative humidity 10% RH, relative to 0% RH): 5.26% | Increased amount of water (%) ([5]; Relative humidity 15% RH, relative to 0% RH): 7.70% | Increased amount of water (%) ([5]; Relative humidity 20% RH, relative to 0% RH): 10.53% | Increased amount of water (%) ([5]; Relative humidity 25% RH, relative to 0% RH): 11.67% | Increased amount of water (%) ([5]; Relative humidity 30% RH, relative to 0% RH): 12.28% | Increased amount of water (%) ([5]; Relative humidity 35% RH, relative to 0% RH): 12.75% | Increased amount of water (%) ([5]; Relative humidity 40% RH, relative to 0% RH): 13.16% | Increased amount of water (%) ([5]; Relative humidity 45% RH, relative to 0% RH): 13.54% | Increased amount of water (%) ([5]; Relative humidity 50% RH, relative to 0% RH): 13.91% | Increased amount of water (%) ([5]; Relative humidity 55% RH, relative to 0% RH): 14.25% | Increased amount of water (%) ([5]; Relative humidity 60% RH, relative to 0% RH): 14.55% | Increased amount of water (%) ([5]; Relative humidity 65% RH, relative to 0% RH): 14.93% | Increased amount of water (%) ([5]; Relative humidity 70% RH, relative to 0% RH): 15.26% | Increased amount of water (%) ([5]; Relative humidity 75% RH, relative to 0% RH): 15.55% | Increased amount of water (%) ([5]; Relative humidity 80% RH, relative to 0% RH): 15.82% | Increased amount of water (%) ([5]; Relative humidity 85% RH, relative to 0% RH): 16.08% | Increased amount of water (%) ([5]; Relative humidity 90% RH, relative to 0% RH): 16.34% | Increased amount of water (%) ([5]; Relative humidity 95% RH, relative to 0% RH): 16.60%
Compound: CC(C)(O/N=C(\C(=O)N[C@@H]1C(=O)N2C(C(=O)[O-])=C(C[N+]3(CCNC(=O)c4ccc(O)c(O)c4Cl)CCCC3)CS[C@H]12)c1csc(N)n1)C(=O)O [type I crystal D]
